According to the supplement of paper PMC11208160:
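Further: IS621 recombinase and bridge RNA in Escherichia coli cells.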

Experiment: recombinant barcode read abundance after kanamycin selection (control-corrected) (log10(CPM+1)); higher = more efficient recombination; sequences stand for … in AGTGCAGAGAAAATCGGCCAGTTTTCTCTGCCTGCAGTCCGCATGCCGT…AGATTTATGCAGCGGACTGCCTTTCTCCCAAAGTGATAAACCGGACAGTATCATGGACCGGTTTTCCCGGTAATCCGTATTTGCAAGGTTGGTTTCACT; site = the 11-nt target
In short: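 The screen was pooled in E. coli and paired targets with IS621 bridge RNA target-binding loops. Recombination efficiency is taken from barcode counts per million at recombinant junctions, averaged and adjusted against the control. Values, in the form log10(CPM+1), come from duplicate plating on chloramphenicol/ampicillin LB agar or on chloramphenicol/ampicillin/kanamycin with 0.1 mM IPTG.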
In the case of “TAGGCCACTTGGGTTCTAACCTGTTGCTT (site TAGGCCACTAT)”, the “recombinant barcode read abundance (log10)” value is reported as 0.539.
For “TAGGCGACTTGGGTTCTAACCTGTTGCCA (site ACCTTAGCTAA)”, the “recombinant barcode read abundance (log10)” value was 0.119.
With “TAGGCGACTTGGGTTCTAACCTGTTGCCA (site TAGGCGACTTG)” the “recombinant barcode read abundance (log10)” value was 0.186.
In the case of “TAGGCTACTTGGGTTCTAACCTGTTGCAG (site TAGGCTACTAT)”, the “recombinant barcode read abundance (log10)” value is reported as 0.206.
For “TAGGCTACTTGGGTTCTAACCTGTTGCAG (site TAGGCTACTCT)”, the “recombinant barcode read abundance (log10)” value was 1.97.
In the case of “TAGGCTACTTGGGTTCTAACCTGTTGCAG (site TAGGCTACTGT)”, the “recombinant barcode read abundance (log10)” value is reported as 0.0351.
For “TAGGCTACTTGGGTTCTAACCTGTTGCAG (site TAGGCTACTTT)”, the “recombinant barcode read abundance (log10)” value was 0.216.
With “TAGGCTACTTGGGTTCTAACCTGTTGCAT (site TAGGCTACTAT)” the “recombinant barcode read abundance (log10)” value was 1.06.
In the case of “TAGGCTACTTGGGTTCTAACCTGTTGCAT (site TAGGCTACTCT)”, the “recombinant barcode read abundance (log10)” value is reported as 0.301.
In the case of “TAGGCTACTTGGGTTCTAACCTGTTGCAT (site TAGGCTACTGT)”, the “recombinant barcode read abundance (log10)” value is reported as 0.132.
In the case of “TAGGCTACTTGGGTTCTAACCTGTTGCAT (site TAGGCTACTTT)”, the “recombinant barcode read abundance (log10)” value is reported as 0.00693.
For “TAGGGAGCTTGGGTTCTAACCTGTTGCAT (site TAGAGAGCTCT)”, the “recombinant barcode read abundance (log10)” value was 0.0779.
For “TAGGGAGCTTGGGTTCTAACCTGTTGCAT (site TAGGGAGCTAT)”, the “recombinant barcode read abundance (log10)” value was 2.8.
For “TAGGGCACTTGGGTTCTAACCTGTTGCCG (site TAGGGCACTCA)”, the “recombinant barcode read abundance (log10)” value was 0.119.
In the case of “TAGGGCACTTGGGTTCTAACCTGTTGCCG (site TAGGGCACTCG)”, the “recombinant barcode read abundance (log10)” value is reported as 1.58.
With “TAGGGCCCTTGGGTTCTAACCTGTTGCCT (site AAGGGCCCTAG)” the “recombinant barcode read abundance (log10)” value was 0.111.
In the case of “TAGGGCCCTTGGGTTCTAACCTGTTGCCT (site CAGGGCCCTAG)”, the “recombinant barcode read abundance (log10)” value is reported as 0.0445.
For “TAGGGCCCTTGGGTTCTAACCTGTTGCCT (site GAGGGCCCTAG)”, the “recombinant barcode read abundance (log10)” value was 0.0503.
In the case of “TAGGGCCCTTGGGTTCTAACCTGTTGCCT (site TAGGGCCCTAG)”, the “recombinant barcode read abundance (log10)” value is reported as 1.15.
With “TAGGGTACTTGGGTTCTAACCTGTTGCGC (site ACAACCTCTCG)” the “recombinant barcode read abundance (log10)” value was 0.0219.
In the case of “TAGGGTACTTGGGTTCTAACCTGTTGCGC (site TAGGGTACTGC)”, the “recombinant barcode read abundance (log10)” value is reported as 2.85.
For “TAGGTACCTTGGGTTCTAACCTGTTGCAT (site TAGGTACCTAT)”, the “recombinant barcode read abundance (log10)” value was 1.98.
In the case of “TAGGTACCTTGGGTTCTAACCTGTTGCAT (site TAGGTCCCTAT)”, the “recombinant barcode read abundance (log10)” value is reported as 0.223.
In the case of “TAGGTACCTTGGGTTCTAACCTGTTGCAT (site TAGGTGCCTAT)”, the “recombinant barcode read abundance (log10)” value is reported as 0.0753.
In the case of “TAGGTACCTTGGGTTCTAACCTGTTGCAT (site TAGGTTCCTAT)”, the “recombinant barcode read abundance (log10)” value is reported as 0.0968.
In the case of “TAGGTCGCTTGGGTTCTAACCTGTTGCAT (site TAGATCGCTCT)”, the “recombinant barcode read abundance (log10)” value is reported as 0.171.
With “TAGGTCGCTTGGGTTCTAACCTGTTGCAT (site TAGGTCGCTAT)” the “recombinant barcode read abundance (log10)” value was 2.48.
In the case of “TAGGTGACTTGGGTTCTAACCTGTTGCGG (site TAGGTGACTCC)”, the “recombinant barcode read abundance (log10)” value is reported as 2.13.
With “TAGGTGACTTGGGTTCTAACCTGTTGCGG (site TAGGTGCCTCC)” the “recombinant barcode read abundance (log10)” value was 0.285.
With “TAGGTGGCTTGGGTTCTAACCTGTTGCCT (site TAGGTGGCTAG)” the “recombinant barcode read abundance (log10)” value was 0.463.
For “TAGGTGGCTTGGGTTCTAACCTGTTGCCT (site TGGGCGGCTAG)”, the “recombinant barcode read abundance (log10)” value was 0.105.
With “TAGGTGTCTTGGGTTCTAACCTGTTGCCT (site TAAGTGTCTAG)” the “recombinant barcode read abundance (log10)” value was 1.04.
With “TAGGTGTCTTGGGTTCTAACCTGTTGCCT (site TACGTGTCTAG)” the “recombinant barcode read abundance (log10)” value was 0.181.
With “TAGGTGTCTTGGGTTCTAACCTGTTGCCT (site TAGGTGTCTAG)” the “recombinant barcode read abundance (log10)” value was 1.33.
For “TAGGTGTCTTGGGTTCTAACCTGTTGCCT (site TATGTGTCTAG)”, the “recombinant barcode read abundance (log10)” value was 0.0655.
For “TAGGTTCCTTGGGTTCTAACCTGTTGCCT (site TAGGTTCCTAG)”, the “recombinant barcode read abundance (log10)” value was 0.348.
With “TAGGTTCCTTGGGTTCTAACCTGTTGCCT (site TCGGTTCCTAG)” the “recombinant barcode read abundance (log10)” value was 0.161.
In the case of “TAGTACCCTTGGGTTCTAACCTGTTGCAC (site TAGTACCCTAT)”, the “recombinant barcode read abundance (log10)” value is reported as 0.169.
With “TAGTACCCTTGGGTTCTAACCTGTTGCAC (site TAGTACCCTCT)” the “recombinant barcode read abundance (log10)” value was 0.298.
With “TAGTACCCTTGGGTTCTAACCTGTTGCAC (site TAGTACCCTGT)” the “recombinant barcode read abundance (log10)” value was 1.28.
In the case of “TAGTACCCTTGGGTTCTAACCTGTTGCAC (site TAGTACCCTTT)”, the “recombinant barcode read abundance (log10)” value is reported as 0.0304.
With “TAGTACCCTTGGGTTCTAACCTGTTGCAG (site TAGTACCCTAT)” the “recombinant barcode read abundance (log10)” value was 0.0395.
For “TAGTACCCTTGGGTTCTAACCTGTTGCAG (site TAGTACCCTCT)”, the “recombinant barcode read abundance (log10)” value was 1.23.
